Assay results from patent US6528655B1, “Aromatic derivatives with HIV integrase inhibitory properties” (Pharmacor, Inc., priority 2000, dated 2003).

What follows are molecules tested against HIV-1 integrase (Human immunodeficiency virus type 1 group M subtype B, UniProt P04585) (assay: HIV-1 integrase inhibition assay (radiolabeled duplex substrate corresponding to the U5 end of the HIV LTR)). Details: not given.
Assay type: biochemical
Description: For the purpose of Table 1 to 4, the HIV-1 integrase inhibition assay was carried out following a known procedure (Burke, Jr. T. R. et al., J. Med. Chem. 38, 4171-4178 (1995)). A suitable radiolabeled duplex substrate corresponding to the U5 end of the HIV LTR was used.
For the purposes of Table 1 to 4 the HIV-1 integrase inhibition assay was based on a known procedure (Hazuda, D. J. et al., Nucleic Acids Res. 22 1121-1122 (1994)).
With `COc1ccc(OC)c(NC(=O)[C@H](CCC(=O)NC(c2ccccc2)(c2ccccc2)c2ccccc2)NC(=O)c2cc(O)c3cccc(O)c3n2)c1` [Example 85, N-[Nα-(4,8-Dihydroxyquinoline-2-carbonyl)-Nδ-trityl-L-glutaminyl]-2,5-dimethoxyaniline] the IC50 was 2600 nM.
`CC(C)(C)OC(=O)C[C@H](NC(=O)c1cc(O)c2cccc(O)c2n1)C(=O)NCCc1ccc(O)c(O)c1` [Example 62, N-[Nα-(4,8-Dihydroxyquinoline-2-carbonyl)-Oγ-ted-butyl-L-aspartyl]dopamine] was tested, and the IC50 was over 5000 nM.
For `O=C(N[C@@H](Cc1cn(C(c2ccccc2)(c2ccccc2)c2ccccc2)cn1)C(=O)NCc1ccc(O)c(O)c1)c1ccc(O)c(O)c1` [Example 25, N-[Nα-(3,4-Dihydroxybenzoyl)-Nτ-trityl-L-histidinyl]-3,4-dihydroxybenzylamine], the IC50 was over 1000 nM.
Work on `COc1ccc(OC)c(NC(=O)[C@H](CCC(=O)NC(c2ccccc2)(c2ccccc2)c2ccccc2)NC(=O)c2ccc(O)c(O)c2)c1` [Example 83, N-[Nα-(3,4-Dihydroxybenzoyl)-Nδ-trityl-L-glutaminyl]-2,5-dimethoxyaniline] yielded an IC50 of 2250 nM.
With `O=C(/C=C/c1ccc(O)c(O)c1)NCCCC[C@H](NC(=O)/C=C/c1ccc(O)c(O)c1)C(=O)OCc1ccccc1` [Example 6, Nα,Nε-Dicaffeoyl-L-lysine Benzyl Ester] the IC50 was 2700 nM.
`O=C(N[C@@H](Cc1ccc(O)c(O)c1)C(=O)NCCc1ccc(O)c(O)c1)c1cc2cccc(O)c2cc1O` [Example 60, N-[Nα-(3,5-Dihydroxynaphthyl-2-carbonyl)-L-3,4-dihydroxyphenylalanyl]dopamine] was tested, and the IC50 was 1800 nM.
`CC(C)(C)OC[C@H](NC(=O)c1cc(O)c2cccc(O)c2n1)C(=O)NCCc1ccc(O)c(O)c1` [Example 72, N-[Nα-(4,8-Dihydroxyquinoline-2-carbonyl)-O-tert-butyl-L-seryl]dopamine] gave an IC50 of over 10000 nM.
In the case of `O=C(N[C@@H](Cc1ccc(O)cc1)C(=O)NCc1ccc(O)c(O)c1)c1cc(O)c2cccc(O)c2n1` [Example 68, N-[Nα-(4,8-Dihydroxyquinoline-2-carbonyl)-L-tyrosyl]-3,4-dihydroxybenzylamine], the IC50 is reported as over 5000 nM.
With `O=C(N[C@@H](Cc1ccc(O)cc1)C(=O)NCCc1ccc(O)c(O)c1)c1cc(O)c2cccc(O)c2n1` [Example 58, N-[Nα-(4,8-Dihydroxyquinoline-2-carbonyl)-L-tyrosyl]dopamine] the IC50 was 1200 nM.
Molecule `O=C(O)CC[C@H](NC(=O)c1cc2ccccc2n1Cc1ccc(F)cc1)C(=O)NCCc1cccs1` [Example 104, N-[Nα-(N′-(4-Fluorobenzyl)indole-2-carbonyl)-L-glutamyl]-2-(2′-thiophenyl)ethylamine] has an IC50 of over 10000 nM.
With `COc1ccc(OC)c(NC(=O)[C@H](CCC(=O)NC(c2ccccc2)(c2ccccc2)c2ccccc2)NC(=O)c2cc3ccccc3[nH]2)c1` [Example 84, N-[Nα-(Indole-2-carbonyl)-Nδ-trityl-L-glutaminyl]-2,5-dimethoxyaniline] the IC50 was 4100 nM.
`O=C(C=Cc1ccc(O)c(O)c1)NC(Cc1cn(-c2ccc([N+](=O)[O-])cc2[N+](=O)[O-])cn1)C(=O)NNC(=O)c1ccccc1O` [Example 80, N1-[Nα-Caffeoyl-Nτ-(2,4-dinitrophenyl)-L-histidinyl]-N2-(2-hydroxybenzoyl)-hydrazine] showed an IC50 of 251 nM.
`O=C(C[C@H](NC(=O)c1ccc(O)c(O)c1)C(=O)NCCc1ccc(O)c(O)c1)OC1CCCCC1` [Example 1, N-[Nα-(3,4-Dihydroxybenzoyl)-Oγ-cyclohexyl-L-aspartyl]dopamine] gave an IC50 of 34000 nM.
`CC(C)(C)OC(=O)NCCC[C@H](NC(=O)c1cc(O)c(O)c(O)c1)C(=O)NCCc1ccc(O)c(O)c1` [Example 54, N-[Nα-(3,4,5-Trihydrozybenzoyl)-Nδ-butoxycarbonyl-L-ornithyl]dopamine] showed an IC50 of 374 nM.
Work on `COc1ccc(OC)c(NC(=O)[C@H](CCC(N)=O)NC(=O)c2ccc[nH]2)c1` [Example 91, N-(Nα-(Pyrrole-2-carbonyl)-L-glutaminyl]-2,5dimethoxyaniline] yielded an IC50 of over 10000 nM.
With `O=C(N[C@@H](Cc1cn(-c2ccc([N+](=O)[O-])cc2[N+](=O)[O-])cn1)C(=O)NCc1ccc(O)c(O)c1)c1ccc(O)c(O)c1` [Example 23, N-[Nα-(3,4-Dihydroxybenzoyl)-Nτ-(2,4-dinitrophenyl)-L-histidinyl]-3,4-dihydroxybenzylamine] the IC50 was 262 nM.
`CC(C)(C)OC(=O)N[C@@H](Cc1cn(-c2ccc([N+](=O)[O-])cc2[N+](=O)[O-])cn1)C(=O)NNC(=O)c1ccccc1O` [Example 79, N1-[Nα-tert-Butoxycarbonyl-Nτ-(2,4-dinitrophenyl)-L-histidinyl]-N2-(2-hydroxybenzoyl)-hydrazine] was tested, and the IC50 was over 4000 nM.
With `O=C(O)CC[C@H](NC(=O)c1cccn1Cc1ccc(F)cc1)C(=O)NCCc1cccs1` [Example 103, N-[Nα-(N′-(4-Fluorobenzyl)pyrrole-2-carbonyl)-L-glutamyl]-2-(2′-thiophenyl)ethylamine] the IC50 was over 10000 nM.
Work on `O=C(/C=C/c1c[nH]c2ccccc12)N[C@@H](Cc1cn(C(c2ccccc2)(c2ccccc2)c2ccccc2)cn1)C(=O)NCCc1ccc(O)c(O)c1` [Example 86, N-[Nα-(3-(3′-Indole)acryloyl)-Nτ-trityl-L-histidinyl]dopamine] yielded an IC50 of 2000 nM.
`O=C(/C=C/c1ccc(O)c(O)c1)N[C@@H](Cc1ccc(O)c(O)c1)C(=O)NNC(=O)c1ccccc1O` [Example 76, N1-(Nα-Caffeoyl-L-3,4-dihydroxyphenylalanyl)-N2-(2-hydroxybenzoyl)-hydrazine] showed an IC50 of 383 nM.
Molecule `O=C(N[C@@H](Cc1cn(C(c2ccccc2)(c2ccccc2)c2ccccc2)cn1)C(=O)NCCc1ccc(O)c(O)c1)c1ccc(O)c(O)c1` [Example 14, N-[Nα-(3,4-Dihydroxybenzoyl)-Nτ-trityl-L-histidinyl]dopamine] has an IC50 of 65 nM.
`Nc1ccc(C(=O)N[C@@H](Cc2ccc(O)c(O)c2)C(=O)O)cc1O` [Example 20, Nα-(4-Amino-3-hydroxybenzoyl)-L-3,4-dihydroxyphenylalanine] was tested, and the IC50 was over 5000 nM.
For `COc1ccc(OC)c(C=CC(=O)N[C@@H](COC(C)(C)C)C(=O)NCCc2ccc(O)c(O)c2)c1` [Example 44, N-[Nα-(2,5-Dimethoxycinnamoyl)-O-tert-butyl-L-seryl]dopamine], the IC50 was over 10000 nM.

Same assay, conditions: Table 1, compounds of formula II′; read-out: IC50
For `Cc1ccc(C(c2ccccc2)(c2ccccc2)n2cnc(C[C@H](NC(=O)CCc3ccc(O)c(O)c3)C(=O)NCCc3ccc(O)c(O)c3)c2)cc1` [Example 28, N-(Nα-Dihydrocaffeoyl-Nτ-methyltrityl-L-histidinyl)dopamine], the IC50 was 713 nM.

Same assay, conditions: Table 2, compounds of formula III′; read-out: IC50
Work on “Nα,Nε-di-(3,5-Dihydroxynaphthyl-2-carbonyl)-L-lysine [Example 65]” yielded an IC50 of over 5000 nM.

Same assay, conditions: Table 4, compounds of formula I′; read-out: IC50
Molecule `O=C(C=Cc1ccc(OCc2ccc(F)cc2)c(OCc2ccc(F)cc2)c1)NCC(=O)NCCc1ccc(O)c(O)c1` [Example 100, N-[Nα-(3,4-di-(4-Fluorobenzyloxy)caffeoyl)-L-glycyl)dopamine] has an IC50 of 2600 nM.
Work on `COc1ccc(NC(=O)[C@H](CCC(=O)NC(c2ccccc2)(c2ccccc2)c2ccccc2)NC(=O)c2cc3ccccc3n2Cc2ccc(F)cc2)cc1O` [Example 109, N-[Nα-(N′-(4-Fluorobenzyl)indole-2-carbonyl)-Nδ-trityl-L-glutaminyl]-3-hydroxy-4-methoxyaniline] yielded an IC50 of 5300 nM.
Work on “N-[Nα-(N′-(4-Fluorobenzyl)indole-2-carbonyl)-Oδ-tert-butyl-L-glutamyl]benzylamine [Example 89]” yielded an IC50 of over 10000 nM.
